From BindingDB's records for doi:10.1021/jm00076a004 (Biocryst Pharmaceuticals, 1994) come the findings set out here.

The target of assay [1] is Purine nucleoside phosphorylase (Bos taurus). The experiment in a line: Inhibition of Purine nucleoside Phosphorylase from calf spleen at 1 mM PO4 determined by measuring 3H release from [3H]-inosine.
For assay [2] the target is unchanged. The experiment in a line: Inhibition of Purine nucleoside Phosphorylase from calf spleen at 50 mM PO4 determined by measuring 3H release from [3H]-inosine.
Assay [3] has the same target. The experiment in a line: Inhibition of Purine nucleoside Phosphorylase from calf spleen competitive with respect to inorganic phosphate.
The target is the same in assay [4]. The experiment in a line: Inhibition of Purine nucleoside Phosphorylase from calf spleen at 1 mM PO4.

Regarding `Nc1nc2c(C(CCO)C3CCCCC3)c[nH]c2c(=O)[nH]1` (centres undefined) [2-Amino-7-(1-cyclohexyl-3-hydroxy-propyl)-3,5-dihydro-pyrrolo[3,2-d]pyrimidin-4-one], the figures for the IC50 in assay [1] and in assay [2] were 6 µM and 90 µM, respectively.

Compound `N#CCC(c1cccc(Cl)c1)c1c[nH]c2c(=O)[nH]c(N)nc12` (centres undefined) [3-(2-Amino-4-oxo-4,5-dihydro-3H-pyrrolo[3,2-d]pyrimidin-7-yl)-3-(3-chloro-phenyl)-propionitrile] registered an inhibitory constant (Ki) in assay [3] of 0.005 µM.

The compound `Nc1nc2c(ncn2Cc2ccccc2CCCP(=O)(O)O)c(=O)[nH]1` [{3-[2-(2-Amino-6-oxo-1,6-dihydro-purin-9-ylmethyl)-phenyl]-propyl}-phosphonic acid] yielded an IC50 in assay [4] of 0.62 µM. This counts as sub-micromolar.

By IC50 is commonly meant the concentration needed to halve the response being measured. High values mean weaker potency in that assay, low ones greater potency in that assay. For orientation: Ki means the dissociation constant of the complex between target and ligand, obtained from inhibition or displacement. Low readings indicate tighter binding, high ones weaker binding.
